Results as given in patent US9957298B2, “Peptides as oxytocin agonists” (Hoffmann-La Roche Inc., priority 2014, dated 2018).
Starred links: 1 amine or outer side, 2 acyl side, 3 side chain; linkers in the order of their positions; H or OH if unused. Positions of bridges follow the written chain, without caps; N, C: chain ends. Non-standard residues stand in square brackets, D forms with d. Residues, ends and D or L forms follow the SMILES beside them. d(αMeL) = CC(C)C[C@@](C)(N)C(=O)O; 2Thi = N[C@@H](Cc1cccs1)C(=O)O; Cha = N[C@@H](CC1CCCCC1)C(=O)O; αMeL = CC(C)C[C@](C)(N)C(=O)O; Chg = N[C@H](C(=O)O)C1CCCCC1; Suc = O=C(CCC(=O)[*:2])[*:1]; NcPrGly = O=C(O)CNC1CC1; Dap = NC[C@H](N)C(=O)O; Aib = CC(C)(N)C(=O)O; Sar = CNCC(=O)O

Legend:
[1] = biological target: T1, human Oxytocin (OTR) receptor (Homo sapiens, UniProt P30559); experiment: Calcium flux assay (FLIPR), agonist mode, CHO cells expressing human oxytocin receptor; format: cell-based; settings: for EC50: CHO cells, human OTR, calcium flux FLIPR, read-out: hOT EC50; for hOT efficacy (%) / Emax: maximum response normalized to endogenous full agonist = 100%; for Emax: CHO, read-out: hOT efficacy (%)
T1 construct: expressed in transfected cells
T1 sequence (P30559 1-389): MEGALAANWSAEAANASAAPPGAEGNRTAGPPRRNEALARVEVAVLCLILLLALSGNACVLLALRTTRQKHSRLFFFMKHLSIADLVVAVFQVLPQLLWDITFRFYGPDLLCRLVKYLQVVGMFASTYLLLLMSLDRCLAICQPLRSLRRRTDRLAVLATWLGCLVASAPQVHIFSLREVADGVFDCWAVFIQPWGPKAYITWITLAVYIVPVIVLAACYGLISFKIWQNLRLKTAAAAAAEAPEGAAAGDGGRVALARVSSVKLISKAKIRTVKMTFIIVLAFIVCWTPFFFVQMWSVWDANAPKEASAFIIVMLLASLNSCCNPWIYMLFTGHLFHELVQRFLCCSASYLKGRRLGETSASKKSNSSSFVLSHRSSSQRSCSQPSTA
From the text: (§1) Chines Hamster Ovary (CHO) cells were transfected with expression plasmids encoding either the human V1a, the human Oxytocin (OTR) or the human V2 receptor, the later in combination with the chimeric Gqs5 G protein to redirect the signal to Calcium flux. Stable cells were cloned by limiting dilution to yield monoclonal cell lines expressing either human V1a, human V2+Gqs5 or human OTR receptors and selected based on functional responses detected on a fluorometric imaging plate reader (FLIPR) detecting Calcium flux in the cell after receptor activation. The stable cell lines were grown in F-12 K Nutrient Mixture (Kaighns Modification), containing 10% foetal bovine serum (FBS), 1% penicillin-streptomycin, 1% L-[…], 200 ug/ml Geneticin at 37° C. in a 10% CO2 incubator at 95% humidity.
(§2) On the afternoon before the assay, cells were plated at a density of 50,000 cells/well into black 96 well plates with clear bottoms to allow cell inspection and fluorescence measurements from the bottom of each well. The density of cells was sufficient to yield a confluent monolayer the next day. Hanks balanced salt solution, without phenol red, containing 20 mM HEPES (pH 7.3) and 2.5 mM probenecid (assay buffer) was prepared fresh for each experiment. Compound dilutions were made using a Beckman Biomek 2000 laboratory automation workstation, in assay buffer containing 1% DMSO. The dye-loading buffer consisted of a final concentration of 2 μM Fluo-4-AM (dissolved in DMSO and pluronic acid) in assay buffer. The existing culture media was removed from the wells and 100 μl of the dye-loading buffer was added to each well and incubated for approximately 60 min at 37° C. in a 5% CO2 incubator at 95% humidity. Once dye-loaded, the cells were washed thoroughly on an Embla cell washer with the assay buffer to remove any unincorporated dye. Exactly 100 μl assay buffer was left in each well.
(§3) Each 96 well plate containing dye-loaded cells was placed into the FLIPR machine and the laser intensity set to a suitable level to detect low basal fluorescence. To test compounds as agonists, 25 μl diluted compound was added to the plate 10 seconds into the fluorescent measurements and fluorescent response was recorded for 5 minutes. The fluorescence data was normalized to the endogenous full agonist dose-response set at 100% for the maximum response and 0% for the minimum. Each agonist concentration-response curve was constructed using a four parameter logistic equation with Microsoft Excel XLFit as follows: Y=Minimum+((Maximum−Minimum)/(1+10^(LogEC50-X)nH)), where y is the % normalized fluorescence, minimum is the minimum y, maximum is the maximum y, logEC50 is the log10 concentration which produces 50% of the maximum induced fluorescence, x is the log10 of the concentration of the agonist compound and H is the slope of the curve (the Hill Coefficient). The maximum value gives the efficacy of the agonist test compound in percentage. The concentration of agonist that produced a half-maximal response is represented by the EC50 value, the logarithm of which yielded the pEC50 value.

human V1a receptor = biological target: T2, human V1a receptor (Homo sapiens, UniProt P37288); experiment: Calcium flux assay (FLIPR), agonist mode, CHO cells expressing human V1a receptor; format: cell-based; settings: read-out: hV1a EC50
T2 construct: expressed in transfected cells
T2 sequence (P37288 whole entry): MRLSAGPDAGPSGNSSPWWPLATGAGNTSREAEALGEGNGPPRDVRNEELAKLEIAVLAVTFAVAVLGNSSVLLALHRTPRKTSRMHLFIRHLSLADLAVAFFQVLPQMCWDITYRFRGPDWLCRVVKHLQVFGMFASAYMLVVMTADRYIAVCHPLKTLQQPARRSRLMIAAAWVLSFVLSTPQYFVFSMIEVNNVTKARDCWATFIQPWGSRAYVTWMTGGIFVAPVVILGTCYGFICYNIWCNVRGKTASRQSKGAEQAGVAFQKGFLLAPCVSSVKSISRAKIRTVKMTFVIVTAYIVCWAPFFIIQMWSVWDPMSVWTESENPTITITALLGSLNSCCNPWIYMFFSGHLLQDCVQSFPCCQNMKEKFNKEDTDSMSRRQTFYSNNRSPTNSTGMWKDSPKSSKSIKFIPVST
From the text: as §1, §2, §3

| SMILES | EC50 [1] | hOT efficacy (%) [1] | EC50 (human V1a receptor) | Emax [1] |
| --- | --- | --- | --- | --- |
| CC[C@H](C)[C@@H]1NC(=O)[C@H](Cc2ccc(O)cc2)NC(=O)[C@@H](N)CC(=O)NC[C@@H](C(=O)N(C)CC(=O)N[C@@H](CC(C)C)C(=O)NCC(N)=O)NC(=O)[C@H](CC(N)=O)NC(=O)[C@H](CCC(N)=O)NC1=O [Example 2] (H-DYIQN[Dap][Sar]LG-NH2; lactam 1-6) | 4 nM | 144% | > 27000 nM |  |
| CC[C@H](C)[C@@H]1NC(=O)[C@H](Cc2ccc(O)cc2)NC(=O)CCC(=O)NC[C@@H](C(=O)N2CCC[C@H]2C(=O)N[C@@H](Cc2c[nH]c3ccccc23)C(=O)NCC(N)=O)NC(=O)[C@H](CC(N)=O)NC(=O)[C@H](CCC(N)=O)NC1=O [Example 16] (YIQN[Dap]PWG-NH2; linker N-5 via Suc) | 4 nM | 100% |  |  |
| CC[C@H](C)[C@@H]1NC(=O)[C@H](Cc2ccc(O)cc2)NC(=O)CCC(=O)NC[C@@H](C(=O)N2CCC[C@H]2C(=O)N[C@@H](CC2CCCCC2)C(=O)NCC(N)=O)NC(=O)[C@H](CC(N)=O)NC(=O)[C@H](CCC(N)=O)NC1=O [Example 18] (YIQN[Dap]P[Cha]G-NH2; linker N-5 via Suc) | 2 nM | 130% |  |  |
| CC[C@H](C)[C@@H]1NC(=O)[C@H](Cc2ccc(O)cc2)NC(=O)CCC(=O)NC[C@@H](C(=O)N2CCC[C@H]2C(=O)N[C@@H](Cc2cccs2)C(=O)NCC(N)=O)NC(=O)[C@H](CC(N)=O)NC(=O)[C@H](CCC(N)=O)NC1=O [Example 21] (YIQN[Dap]P[2Thi]G-NH2; linker N-5 via Suc) | 4 nM | 126% |  |  |
| CC[C@H](C)[C@@H]1NC(=O)[C@H](Cc2ccc(O)cc2)NC(=O)CCC(=O)NC[C@@H](C(=O)N(C)CC(=O)N[C@@](C)(CC(C)C)C(=O)NCC(N)=O)NC(=O)[C@H](CC(N)=O)NC(=O)[C@H](CCC(N)=O)NC1=O [Example 23] (YIQN[Dap][Sar][αMeL]G-NH2; linker N-5 via Suc) | 3 nM | 123% |  |  |
| CC[C@H](C)[C@@H]1NC(=O)[C@H](Cc2ccc(O)cc2)NC(=O)CCC(=O)NC[C@@H](C(=O)N(C)CC(=O)N[C@@H](CO)C(=O)NCC(N)=O)NC(=O)[C@H](CC(N)=O)NC(=O)[C@H](CCC(N)=O)NC1=O [Example 30] (YIQN[Dap][Sar]SG-NH2; linker N-5 via Suc) | 2 nM | 109% |  |  |
| CC[C@H](C)[C@@H]1NC(=O)[C@H](Cc2ccc(O)cc2)NC(=O)CCC(=O)NC[C@@H](C(=O)N(C)CC(=O)N[C@@H](CCC(N)=O)C(=O)NCC(N)=O)NC(=O)[C@H](CC(N)=O)NC(=O)[C@H](CCC(N)=O)NC1=O [Example 32] (YIQN[Dap][Sar]QG-NH2; linker N-5 via Suc) | 5 nM | 112% |  |  |
| CC[C@H](C)[C@@H]1NC(=O)[C@H](Cc2ccc(O)cc2)NC(=O)CCC(=O)NC[C@@H](C(=O)N(C)CC(=O)N[C@@H](Cc2ccccc2)C(=O)NCC(N)=O)NC(=O)[C@H](CC(N)=O)NC(=O)[C@H](CCC(N)=O)NC1=O [Example 33] (YIQN[Dap][Sar]FG-NH2; linker N-5 via Suc) | 3 nM | 111% |  |  |
| CC[C@H](C)[C@@H]1NC(=O)[C@H](Cc2ccc(O)cc2)NC(=O)CCC(=O)NC[C@@H](C(=O)N(C)CC(=O)N[C@@H](Cc2cccs2)C(=O)NCC(N)=O)NC(=O)[C@H](CC(N)=O)NC(=O)[C@H](CCC(N)=O)NC1=O [Example 34] (YIQN[Dap][Sar][2Thi]G-NH2; linker N-5 via Suc) | 3 nM | 106% |  |  |
| CC[C@H](C)[C@@H]1NC(=O)[C@H](Cc2ccc(O)cc2)NC(=O)CCC(=O)NC[C@@H](C(=O)N(C)CC(=O)N[C@@H](Cc2cnc[nH]2)C(=O)NCC(N)=O)NC(=O)[C@H](CC(N)=O)NC(=O)[C@H](CCC(N)=O)NC1=O [Example 35] (YIQN[Dap][Sar]HG-NH2; linker N-5 via Suc) | 4 nM | 111% |  |  |
| CC[C@H](C)[C@@H]1NC(=O)[C@H](Cc2ccc(O)cc2)NC(=O)CCC(=O)NC[C@@H](C(=O)N(C)CC(=O)N[C@@H](Cc2c[nH]c3ccccc23)C(=O)NCC(N)=O)NC(=O)[C@H](CC(N)=O)NC(=O)[C@H](CCC(N)=O)NC1=O [Example 36] (YIQN[Dap][Sar]WG-NH2; linker N-5 via Suc) | 2 nM | 111% |  |  |
| CC[C@H](C)[C@@H]1NC(=O)[C@H](Cc2ccc(O)cc2)NC(=O)CCC(=O)NC[C@@H](C(=O)N(CC(=O)N[C@](C)(CC(C)C)C(=O)NCC(N)=O)C2CC2)NC(=O)[C@H](CC(N)=O)NC(=O)[C@H](CCC(N)=O)NC1=O [Example 39] (YIQN[Dap][NcPrGly][d(αMeL)]G-NH2; linker N-5 via Suc) | 1.3 nM |  |  | 108% |
| CC[C@H](C)[C@@H]1NC(=O)[C@H](Cc2ccc(O)cc2)NC(=O)CCC(=O)NC[C@@H](C(=O)N(CC(=O)N[C@@H](C(=O)NCC(N)=O)C(C)C)C2CC2)NC(=O)[C@H](CC(N)=O)NC(=O)[C@H](CCC(N)=O)NC1=O [Example 40] (YIQN[Dap][NcPrGly][dV]G-NH2; linker N-5 via Suc) | 0.6 nM |  |  | 106% |
| CC[C@H](C)[C@@H]1NC(=O)[C@H](Cc2ccc(O)cc2)NC(=O)CCC(=O)NC[C@@H](C(=O)N(CC(=O)NC(C)(C)C(=O)NCC(N)=O)C2CC2)NC(=O)[C@H](CC(N)=O)NC(=O)[C@H](CCC(N)=O)NC1=O [Example 41] (YIQN[Dap][NcPrGly][Aib]G-NH2; linker N-5 via Suc) | 2.5 nM |  |  | 108% |
| CC[C@@H](C)[C@@H](NC(=O)CN(C(=O)[C@@H]1CNC(=O)CCC(=O)N[C@@H](Cc2ccc(O)cc2)C(=O)N[C@@H]([C@@H](C)CC)C(=O)N[C@@H](CCC(N)=O)C(=O)N[C@@H](CC(N)=O)C(=O)N1)C1CC1)C(=O)NCC(N)=O [Example 42] (YIQN[Dap][NcPrGly][dI]G-NH2; linker N-5 via Suc) | 0.37 nM |  |  | 115% |
| CC[C@H](C)[C@@H]1NC(=O)[C@H](Cc2ccc(O)cc2)NC(=O)CCC(=O)NC[C@@H](C(=O)N(CC(=O)N[C@H](C(=O)NCC(N)=O)C2CCCCC2)C2CC2)NC(=O)[C@H](CC(N)=O)NC(=O)[C@H](CCC(N)=O)NC1=O [Example 43] (YIQN[Dap][NcPrGly][Chg]G-NH2; linker N-5 via Suc) | 0.26 nM |  |  | 110% |
| CC[C@H](C)[C@@H]1NC(=O)[C@H](Cc2ccc(O)cc2)NC(=O)CCC(=O)NC[C@@H](C(=O)N(CC(=O)N[C@H](C(=O)NCC(N)=O)[C@@H](C)O)C2CC2)NC(=O)[C@H](CC(N)=O)NC(=O)[C@H](CCC(N)=O)NC1=O [Example 44] (YIQN[Dap][NcPrGly]TG-NH2; linker N-5 via Suc) | 0.9 nM |  |  | 115% |
| CC[C@H](C)[C@@H]1NC(=O)[C@H](Cc2ccc(O)cc2)NC(=O)CCC(=O)NC[C@@H](C(=O)N(CC(=O)N[C@@H](CO)C(=O)NCC(N)=O)C2CC2)NC(=O)[C@H](CC(N)=O)NC(=O)[C@H](CCC(N)=O)NC1=O [Example 45] (YIQN[Dap][NcPrGly]SG-NH2; linker N-5 via Suc) | 0.8 nM |  |  | 117% |
